Read-outs that look alike come from different tables or passages of the source.
Assays:
[1] = Cytotoxicity test (MTT), HT-29; assay type: cell-based; details: human, HT-29, 48 h; for viability at 48 h, 0.01 µM / viability at 48 h, 0.1 µM / viability at 48 h, 1 µM / viability at 48 h, 10 µM / viability at 48 h, 100 µM: HT-29 cells (colorectal cancer cell line), read-out: Cell viability (% of control); for IC50 at 48 h: HT-29 cells, read-out: IC50 (μM), cytotoxicity
Procedure: (§1) The human colorectal cancer cell line HT-29 and the monocytic blood cancer-derived cell line U937 were cultured in a RPMI 1640 medium containing 10% FBS and 1% penicillin/streptomycin (PS) at 37° C. under a condition of 5% CO2, and when the cells used herein were grown to 80% or more, they were subcultured at a ratio of 1:3.
(§2) Each type of cells were cultured in a 96 well plate at a concentration of 1×10^5 cells/cm2, treated with a test compound by concentration in a medium only containing 1% FBS and 1% PS at 37° C. under a condition of 5% CO2 for 48 hours and reacted with 5 mg/mL of a 3-[4,5-dimethylthiazol-2-yl]-2,5-diphenyltetrazolium bromide (MTT) reagent for 4 hours, and then the medium was completely removed, the cells were treated with DMSO, formazan crystals were dissolved for 30 minutes, and then absorbance was measured at 540 nm.

[2] = test system: TNF-α-induced adhesion of monocytes to intestinal epithelial cells; assay: Inhibitory activity against TNF-α-induced adhesion of monocytes (U937) to intestinal epithelial cells (HT-29); assay type: cell-based, human; details: Homo sapiens
Procedure: HT-29 human colorectal cancer-derived epithelial cells and U937 human-derived monocytic cells were cultured in an RPMI 1640 medium containing 10% FBS and 1% penicillin/streptomycin (PS) at 37° C. under a condition of 5% CO2, and when the cells were grown to 80% or more in a culture flask, they were subcultured in a ratio of 1:3 to be used in this test. The HT-29 cells were cultured in a 24-well plate at a concentration of 2×10^5 cells/cm2, and then the medium only containing 1% FBS and 1% PS was pretreated with a test drug for 1 hour. Afterward, BCECF-loaded U937 cells by being treated with 10 μg/mL of BCECF-AM at 37° C. for 30 minutes and 10 ng/mL of TNF-α reacted with the HT-29 cells previously treated with the test drug at 37° C. for 3 hours. After the reaction, the medium was removed, and then the cells were washed with PBS twice to remove U937 cells that were not adhered. In a subsequent step, for cell lysis, 0.1% Triton X-100 (0.1 M Tris) was treated to allow a reaction at room temperature for 30 minutes, and then fluorescence was measured using a Fluostar optima microplate reader (BMG LABTECH, Germany) to quantify the cells (Carvalho et al., 1996; Thapa et al., 2008).

[3] = Cytotoxicity test (MTT), U937; assay type: cell-based; details: human, U937, 48 h; for viability at 48 h, 0.01 µM / viability at 48 h, 0.1 µM / viability at 48 h, 1 µM / viability at 48 h, 10 µM / viability at 48 h, 100 µM: U937 cells (monocytic blood cancer-derived cell line), read-out: Cell viability (% of control); for IC50 at 48 h: U937 cells
Procedure: as §1, §2

[4] = 1 μM test drug, HT-29/U937 adhesion, 10 ng/mL TNF-α, read-out: Inhibitory activity (%)

| SMILES | viability at 48 h, 0.01 µM [1] [%] | viability at 48 h, 0.1 µM [1] [%] | viability at 48 h, 1 µM [1] [%] | viability at 48 h, 10 µM [1] [%] | viability at 48 h, 100 µM [1] [%] | IC50 at 48 h [1] [µM] | inhibition at 1 µM ([2]; 1 μM, Table 8, read-out: 1 μM concentration inhibitory activity) [%] | IC50 ([2]; HT-29/U937 adhesion, TNF-α-induced, read-out: IC50 (adhesion inhibition)) [µM] | viability at 48 h, 0.01 µM [3] [%] | viability at 48 h, 0.1 µM [3] [%] | viability at 48 h, 1 µM [3] [%] | viability at 48 h, 10 µM [3] [%] | viability at 48 h, 100 µM [3] [%] | IC50 at 48 h [3] [µM] | inhibition at 1 µM [2, 4] [%] |
| --- | --- | --- | --- | --- | --- | --- | --- | --- | --- | --- | --- | --- | --- | --- | --- |
| Cc1nc(NS(=O)(=O)c2cccc3ccccc23)c(C)c(C)c1O [Compound 22-5, N-(5-hydroxy-3,4,6-trimethylpyridin-2-yl)naphthalene-1-sulfonamide] | 95.2 ± 3.3 | 86.7 ± 6.5 | 87.8 ± 3.2 | 89.1 ± 3.5 | 88.8 ± 1.2 | > 100 | 80.6 | 0.23 | 102 ± 5.4 | 93.4 ± 1.2 | 92.6 ± 0.9 | 85.1 ± 3.1 | 62.5 ± 2 | > 100 | – |
| Cc1nc(NS(C)(=O)=O)c(C)c(C)c1O [Compound 22-1, N-(5-hydroxy-3,4,6-trimethylpyridin-2-yl)methanesulfonamide] | 87.6 ± 3.3 | 75.7 ± 8.2 | 76.1 ± 3.6 | 63.5 ± 1.8 | 43 ± 1.9 | 50.1 | – | – | 97.6 ± 5 | 94.8 ± 3.8 | 95.7 ± 2.4 | 94.4 ± 0.4 | 94.4 ± 2.5 | > 100 | 18.7 |
| Cc1nc(NC(=S)Nc2ccccc2)c(C)c(C)c1O [Compound 18-4, 1-(5-hydroxy-3,4,6-trimethylpyridin-2-yl)-3-phenylthiourea] | 96.6 ± 2.1 | 97 ± 4.4 | 99 ± 5 | 96.6 ± 2.4 | 76 ± 4.9 | > 100 | – | – | 99.5 ± 2.1 | 101 ± 1.9 | 96.7 ± 1.7 | 96.1 ± 1.4 | 70.6 ± 0.8 | > 100 | 49.7 |
| Cc1nc(NC(=S)Nc2ccc(Cl)cc2)c(C)c(C)c1O [Compound 18-6, 1-(4-chlorophenyl)-3-(5-hydroxy-3,4,6-trimethylpyridin-2-yl)thiourea] | 95.2 ± 3.2 | 86.6 ± 4.9 | 83.6 ± 3.3 | 72.8 ± 2.8 | 65.3 ± 1.9 | > 100 | – | – | 99.6 ± 0.5 | 96.8 ± 1.9 | 91.6 ± 2.6 | 86.4 ± 1.7 | 80.7 ± 2.5 | > 100 | ≥ 50 |
| Cc1ccc(S(=O)(=O)Nc2nc(C)c(O)c(C)c2C)cc1 [Compound 22-2, N-(5-hydroxy-3,4,6-trimethylpyridin-2-yl)-4-methylbenzenesulfonamide] | 77.1 ± 3 | 76.9 ± 4 | 73.8 ± 5.8 | 71.5 ± 4.6 | 62.8 ± 0.5 | > 100 | – | – | 96.6 ± 1.6 | 94.5 ± 6.3 | 96.1 ± 3.8 | 90.5 ± 1.7 | 60.9 ± 1.7 | > 100 | 42.1 |
| Cc1nc(NC(=O)NS(=O)(=O)c2ccccc2)c(C)c(C)c1O [Compound 16-6, N-((5-hydroxy-3,4,6-trimethylpyridin-2-yl)carbamoyl)benzenesulfonamide] | 90 ± 3.5 | 85.4 ± 0.9 | 76 ± 7.2 | 77.9 ± 3.5 | 53.6 ± 2.5 | > 100 | – | – | 91.6 ± 2.6 | 94.3 ± 2.6 | 85.8 ± 2.7 | 83.5 ± 1.1 | 84.9 ± 2 | > 100 | 17.5 |
| Cc1nc(NC(=O)Nc2ccc(Cl)cc2)c(C)c(C)c1O [Compound 16-3, 1-(4-Chlorophenyl)-3-(5-hydroxy-3,4,6-trimethylpyridin-2-yl)urea] | 104 ± 6.1 | 102 ± 6.4 | 103 ± 11.1 | 89.3 ± 4.8 | 69.2 ± 6.1 | > 100 | – | – | 89.4 ± 2.7 | 89.7 ± 3.1 | 81 ± 3.1 | 81 ± 2.2 | 66 ± 0.1 | > 100 | 7.7 |
| Cc1cccc(C(C)(C)C)c1NC(=O)Nc1nc(C)c(O)c(C)c1C [Compound 16-4, 1-(2-tert-butyl-6-methylphenyl)-3-(5-hydroxy-3,4,6-trimethylpyridin-2-yl)urea] | 76.6 ± 6.9 | 76.8 ± 5 | 74.7 ± 6 | 62.1 ± 2.9 | 43.6 ± 1.8 | 34.7 | – | – | 95 ± 2.9 | 91.2 ± 1.9 | 91.3 ± 1.2 | 85.4 ± 0.2 | 75.5 ± 1.7 | > 100 | 34.3 |
| Cc1nc(NC(=O)Nc2cccc3ccccc23)c(C)c(C)c1O [Compound 16-5, 1-(5-hydroxy-3,4,6-trimethylpyridin-2-yl)-3-(naphthalen-1-yl)urea] | 105 ± 1.1 | 94.3 ± 2.1 | 78.6 ± 10.1 | 73.4 ± 5.6 | 76.7 ± 1.1 | > 100 | – | – | 88.1 ± 1.9 | 85.4 ± 6.4 | 90.9 ± 1.2 | 88.5 ± 2.8 | 79.6 ± 2.7 | > 100 | 20.2 |

Reference: patent US10604487B2, “Pyridinol derivative or pharmaceutically acceptable salt thereof, and pharmaceutical composition containing same as active ingredient” (Research Cooperation Foundation of Yeungnam University, priority 2016, dated 2020)
